Laboratory results published in ChEMBL document CHEMBL3832065, “DailyMed|setid=d976599a-0ee0-4fa4-afe6-bdfbca570afe | OLANZAPINE - olanzapine tablet, film coated|Rebel Distributors Corp”.

How the values were obtained:
Homo sapiens = test: (§1) Evaluation of pharmacokinetic parameters for Olanzapine after single oral dose of Olanzapine tablet.; assay type: ADME, organism-based; conditions: in vivo, po, dosed compound id 18, dosed compound name OLANZAPINE, regimen Single dose, tissue Plasma
[1] = as §1; assay type: ADME, organism-based; conditions: human, in vivo, regimen Single dose
[2] = dosed compound id 18, dosed compound name OLANZAPINE, tissue Plasma

Work on Cc1cc2c(s1)Nc1ccccc1N=C2N1CCN(C)CC1 [OLANZAPINE] yielded a Vd (Homo sapiens) of 1000 L, a Tmax [1, 2] of 6 h and a half-life [1, 2] of 30 h. It also gave a CL/F ([1]; dosed compound id 18, dosed compound name OLANZAPINE, tissue Plasma, read-out: CL(app) (converted)) of 417 mL/min and a dose excreted ([1]; dosed compound id 180, dosed compound name C-14 OLANZAPINE, tissue Urine, read-out: Excretion) of 7%.
